Results reported in PMC4894664 (Cancer cell, 2015).
Values belong to the compound of their own block, whether it stands above or below them.

Tests used:
[1] = system: second site of the WT RAF dimer in SK-MEL-30 NRAS mutant cells; type: cell-based; settings: p-ERK; first site occupied by LGX818
[2] = system: RAF mutants that constitutively dimerize; experiment: ERK signaling in SKBR3 cells expressing RAF mutants that constitutively dimerize; type: cell-based; settings: SKBR3, 1 μM drug, 1 hr
[3] = system: SK-MEL-2 melanoma (mutant NRAS Q61R); experiment: p-ERK in SK-MEL-2 cells; type: cell-based; settings: 1 hr
A375 (BRAF V600E) cells = experiment: p-ERK in A375 cells; type: cell-based
[4] = system: BRAF V600E T529N or p61 BRAF V600E T529N; experiment: ERK signaling in cells expressing BRAF gatekeeper mutants; type: cell-based; settings: cells expressing BRAF V600E T529N or p61 BRAF V600E T529N (gatekeeper mutation)
[5] = system: A375 in which NRAS Q61K is expressed; experiment: p-ERK in A375 cells expressing NRAS Q61K; type: cell-based; settings: A375 with mutant NRAS overexpressed, 1 hr
[6] = Tolerability of daily dosing in mice; type: in vivo; settings: 100 mg/kg given daily
[7] = system: SK-MEL-239 C4 tumors (p61 V600E); experiment: SK-MEL-239 C4 subcutaneous xenograft; type: in vivo, nude mice; settings: for activity against SK-MEL-239 C4 tumors (growth): daily for 32 days, 75 mg/kg vemurafenib or 100 mg/kg BGB659
[8] = system: SKBR3 breast cancer (HER2-activated wild type RAS); experiment: RAS activity and p-ERK in SKBR3 cells; type: cell-based
[9] = system: A549 lung cancer (mutant KRAS G12S); experiment: p-ERK in A549 cells; type: cell-based; settings: 1 hr
SK-MEL-239 tumors = experiment: SK-MEL-239 subcutaneous xenograft; type: in vivo, nude mice; settings: for growth of SK-MEL-239 tumors: daily for 32 days, 75 mg/kg vemurafenib or 100 mg/kg BGB659; for ERK signaling in SK-MEL-239 tumors: tumor extracts, Western blot, 75 mg/kg vemurafenib or 100 mg/kg BGB659 daily
[10] = system: SK-MEL-30 (NRAS Q61K) cells; experiment: p-ERK in SK-MEL-30 cells, with and without drug washout; type: cell-based
[11] = system: SK-MEL-239 parental cells (BRAF V600E); experiment: p-ERK inhibition in SK-MEL-239 parental cells; type: cell-based; settings: read-out: concentration inhibiting monomer driven signaling (p-ERK IC50)
[12] = system: SK-MEL-239 C4 clone (which expresses p61 BRAF V600E); experiment: p-ERK inhibition in SK-MEL-239 C4 clone; type: cell-based; settings: read-out: concentration inhibiting dimer signaling (p-ERK IC50)
BRAF V600E tumor cells = experiment: ERK phosphorylation after drug washout in BRAF V600E tumor cells; type: cell-based; settings: 1 hr exposure then washout
p61 BRAF V600E = p61 BRAF V600E (Homo sapiens, UniProt P15056, DEL169-380/V600E); experiment: ERK signaling; type: cell-based; settings: SKBR3, drug 1 hr
BRAF/CRAF heterodimers = BRAF/CRAF heterodimers (Homo sapiens, UniProt P04049+P15056); experiment: Induction of BRAF/CRAF heterodimers; type: cell-based; settings: HeLa and two melanoma cell lines with mutant NRAS, 1 hr
[13] = system: JVM-3, a BRAF K601N CLL cell line; experiment: ERK signaling and proliferation of JVM-3; type: cell-based
[14] = SK-MEL-30 (mutant NRAS, WT RAF)
[15] = SK-MEL-30, 3 μM for 1 hr then washout

Structure (SMILES): CC(C)(N)c1cc(C(=O)N[C@@H]2CCc3ccc(Oc4ccnc5c4CCC(=O)N5)cc3C2)cc(C(F)(F)F)c1 [BGB659]
potency for inhibition of monomers and the second site of dimers [1]: 0.1 to 0.3 µM | sensitivity of ERK signaling driven by RAF mutants that constitutively dimerize [2]: sensitive | decline of ERK phosphorylation ([3]; SK-MEL-2, 1 μM): 40% | ERK phosphorylation at 10 μM ([3]; SK-MEL-2, 10 μM): approached complete inhibition | inhibition of ERK signaling at 1 μM (A375 (BRAF V600E) cells; A375, 1 μM, 1 hr): almost complete inhibition | IC50 (A375 (BRAF V600E) cells; read-out: IC50 for inhibition of ERK signaling, A375, 1 hr): 0.1 to 0.3 µM | ERK signaling resistant to the drug [4]: resistant | inhibition of ERK signaling at 1 μM [5]: almost complete inhibition | weight loss or other toxicity [6]: unassociated with weight loss or other obvious toxicity | activity against SK-MEL-239 C4 tumors (growth) [7]: had activity | ERK signaling in SK-MEL-239 C4 tumors ([7]; tumor extracts, Western blot, 75 mg/kg vemurafenib or 100 mg/kg BGB659 daily): only BGB659 inhibited | decline of ERK phosphorylation ([8]; SKBR3, 1 μM, 1 hr): 40% | ERK phosphorylation at 10 μM ([8]; SKBR3, 10 μM, 1 hr): approached complete inhibition | ERK phosphorylation at 1 μM ([9]; A549, 1 μM): declined to pretreatment levels | ERK phosphorylation at 10 μM ([9]; A549, 10 μM): some residual activity remained | growth of SK-MEL-239 tumors (SK-MEL-239 tumors): effectively inhibited | ERK signaling in SK-MEL-239 tumors (SK-MEL-239 tumors): potently inhibited

IC50 [12]: 0.287 µM
Structure (SMILES): COC(=O)N[C@@H](C)CNc1nccc(-c2cn(C(C)C)nc2-c2cc(Cl)cc(NS(C)(=O)=O)c2F)n1 [LGX818]
concentration of peak induction of ERK [10, 14]: 100 nM | concentrations causing concentration-dependent inhibition of ERK signaling [10, 14]: 300 to 3000 nM | half-time of p-ERK rise after drug washout [10, 15]: 10 min | p-ERK 24 hr after washout relative to basal [10, 15]: three fold elevated compared to basal | maximum p-ERK after drug washout relative to basal ([10]; SK-MEL-30, 3 μM for 1 hr then washout, maximum approximately 1 hr after washout): about five times higher than basal | IC50 [11]: 0.014 µM | p-ERK after drug washout (A375 (BRAF V600E) cells; A375, 3 μM for 1 hr then washout): remained inhibited in A375 for up to 24 hr | ERK phosphorylation 1 hr after washout of the drug (BRAF V600E tumor cells): remains inhibited

fold higher concentrations required to inhibit ERK driven by p61 V600E dimers than by p61 V600E R509H monomers (p61 BRAF V600E): same relative difference
Structure (SMILES): CC(C)(C)c1nc(-c2cccc(NS(=O)(=O)c3c(F)cccc3F)c2F)c(-c2ccnc(N)n2)s1 [dabrafenib]
induction of BRAF/CRAF heterodimers (BRAF/CRAF heterodimers): equivalent and much greater than that caused by vemurafenib

Structure (SMILES): CS(=O)(=O)CCNCc1ccc(-c2ccc3ncnc(Nc4ccc(OCc5cccc(F)c5)c(Cl)c4)c3c2)o1 [lapatinib]
RAS activity and ERK signaling ([8]; SKBR3, 1 hr exposure): potently suppressed

Structure (SMILES): CCCS(=O)(=O)Nc1ccc(F)c(C(=O)c2c[nH]c3ncc(-c4ccc(Cl)cc4)cc23)c1F [vemurafenib]
sensitivity of ERK signaling driven by RAF mutants that constitutively dimerize [2]: resistant | effect on ERK signaling [10, 14]: activates ERK signaling | effect on ERK signaling and proliferation of JVM-3 [13]: resistant | ERK signaling resistant to the drug [4]: resistant | activity against SK-MEL-239 C4 tumors (growth) [7]: only the latter had activity | growth of SK-MEL-239 tumors (SK-MEL-239 tumors): effectively inhibited | ERK signaling in SK-MEL-239 tumors (SK-MEL-239 tumors): potently inhibited | ERK phosphorylation 1 hr after washout of the drug (BRAF V600E tumor cells): returned to pre-exposure levels
